Results reported in patent publication US20130005762A1, “COMBINATION OF DROLOXIFENE AND CLOPIDOGREL” (TCP Innovations Limited, priority 2009, published 2013).
“Also recorded” adds a separate entry of the source. Where a name gives a salt, the structure may show the parent alone.

Key:
[1] = system: rat aortic smooth muscle cells; assay: TGF-beta Production Stimulator functional assay: suppression of smooth muscle cell proliferation reversible by neutralising anti-TGF-beta1 antibody; format: cell-based, Wistar rat; conditions: compared side-by-side with Tamoxifen
Source text: In order compare Droloxifene with other triphenylethylenes, we have exploited a functional assay for TGF-beta1 activity. Alternative approaches are less suitable for various reasons: it is not possible to directly measure TGF-beta protein production by cultured cells in response to triphenylethylenes because the TGF-beta that is produced remains associated with the cells or the extracellular matrix and is therefore not available for assay (for example, by ELISA) in the conditioned medium from the cultured cells. […] The specificity of such an assay is achieved by comparing the rate of proliferation of the smooth muscle cells in the presence or absence of a validated, highly specific neutralising antibody against TGF-beta (or TGF-beta1, as required).
The cells were prepared by enzyme dispersion of isolated rat aortae exactly as described previously (Grainger et al (1993) Biochem. J. 294(1):109-12 and the references therein). The cells were cultured (37° C.; 5% CO2) in DMEM+10% foetal calf serum (FCS), and subcultured every 4 days at 1:2 dilution, using 0.02% trypsin/EDTA (Gibco). Experiments were performed between the sixth and twentieth subculture.
For the experiments, the cells were subcultured into 12-well cluster plates, and allowed to grow for 24 hrs. […] The cells were then incubated for 72 hrs. All treatment conditions were established in triplicate. One triplicate of cells was counted (see below) at Oh. All other wells were counted at 72 hrs.
The number of cells in each well was determined as follows: the well was washed three times with serum-free DMEM, aspirated and then incubated with 100 μl of trypsin/EDTA solution (Gibco) for 2 minutes at 37° C. Complete release of the cell monolayer was confirmed microscopically. The cell density in portion of this suspension was determined by counting using an Improved Neubauer hameocytometer, ensuring the suspension was uniform by gentle pipetting, prior to sampling. The cell density was converted to the absolute number of cells present in the well by multiplying the number of cells per μl by the total volume of suspension (100 μl). For each condition, the mean number of cells at the end of the experiment was calculated by meaning the number of cells in each well of triplicate.
The extent of proliferation of the cell culture under each condition was determined by subtracting the mean number of cells at time Oh from the mean number of cells under that condition at time 72 h. The amount of TGF-beta1 activity under each condition was determined by subtracting the inhibition of growth achieved in the presence of neutralising anti-TGF-beta1 antibody (AB-101-NA; R&D Systems) from the inhibition of growth achieved in the absence of antibody.

[2] = Effect of co-administered triphenylethylenes on clopidogrel metabolism in vivo (CLP*-acetamide by LC-MS); set-up: species or system Sprague-Dawley rats; conditions: oral gavage; for effect on clopidogrel metabolism (in words): 0.1 to 10 mg/kg with 10 mg/kg clopidogrel
Description: Adult male Sprague-Dawley rats are dosed with various triphenylethylenes at different doses from 0.1 mg/kg to 10 mg/kg (spanning the likely doses such compounds would be used in man), or with vehicle only, and simultaneously dosed with 10 mg/kg clopidogrel, both by oral gavage. Blood samples are drawn through an in-dwelling jugular catheter at 0.5, 1, 2, 4, 8 and 24 hrs post-dose, and serum is prepared by conventional methods well known in the art.
The level of CLP*, the active metabolite of clopidogrel is then determined in each blood sample by LC-MS by collecting the blood samples in tubes containing the thiol alkylating agent iodeoacetamide. Iodoacetamide reacts with CLP* to generate a stable product which can be detected by LC-MS using standard methodology well known in the art. An authentic sample of the acetamide adduct of CLP* is used to quantify the level of CLP*-acetamide in the sample. […] The concentration of CLP*-acetamide adduct can therefore be assumed to be proportional to the concentration of CLP*. The pharmacokinetics of CLP*-acetamide are then compared under the different conditions, using standard pharmacokinetics models implemented with WinNonLin.

[3] = Meta-analysis of cardiovascular outcomes of women treated with Tamoxifen (Braithwaite et al.); format: in vivo; conditions: translated from the relative risk
Source text: This translates to a 33% reduction in risk, which, if replicated among higher risk groups such as men, would result in at least 10,000 fewer deaths due to myocardial infarction in the UK alone each year, and five times that number in the US.

[4] = analog 0.1 mg/kg with 10 mg/kg clopidogrel
[5] = analog 1 mg/kg with 10 mg/kg clopidogrel
[6] = analog 10 mg/kg with 10 mg/kg clopidogrel

| SMILES | TGF-beta Production Stimulator activity (in words) [1] | effect on clopidogrel metabolism (in words) [2] | effect on clopidogrel metabolism (in words) ([2]; listed as droloxifene) | % inhibition of CLP*-acetamide Cmax compared to vehicle control [2, 4] [%] | % inhibition of CLP*-acetamide Cmax compared to vehicle control [2, 5] [%] | % inhibition of CLP*-acetamide Cmax compared to vehicle control [2, 6] [%] | reduction in risk of death from myocardial infarction [3] [%] | TGF-beta Production Stimulator activity (in words) ([1]; listed as raloxifene) |
| --- | --- | --- | --- | --- | --- | --- | --- | --- |
| CC/C(=C(/c1ccc(OCCN(C)C)cc1)c1cccc(O)c1)c1ccccc1 [Droloxifene, (E)-1-(4′-(2-dimethylaminoethoxy)phenyl)-1-(3-hydroxyphenyl)-2-phenylbut-1-ene] | comparable activity | no effect on clopidogrel metabolism | no effect on the pharmacokinetics of clopidogrel | 0 | −19 | −7 | – | – |
| CC/C(=C(\c1ccccc1)c1ccc(OCCN(C)C)cc1)c1ccccc1 [Tamoxifen] | – | – | – | – | – | – | 33 | – |
| O=C(c1ccc(OCCN2CCCCC2)cc1)c1c(-c2ccc(O)cc2)sc2cc(O)ccc12 [Raloxifene] | does not have measurable activity | – | – | −18 | 11 | – | – | substantially less active; also recorded: does not stimulate the production of TGF-beta1 |
| CC/C(=C(\c1ccccc1)c1ccc(OCCN(C)C)cc1)c1ccccc1 [tamoxifen citrate] | no difference | – | – | – | – | – | – | – |
| CC/C(=C(\c1ccc(I)cc1)c1ccc(OCCN2CCCC2)cc1)c1ccccc1 [Idoxifene] | – | – | – | 2 | 6 | 48 | – | – |
